Measurements published in patent US20170253607A1, “LONG-ACTING HIV PROTEASE INHIBITOR” (Shionogi & Co., Ltd., priority 2014, published 2017).

Legend:
[1] = Evaluation of total body clearance (CLtot), intravenous administration; type: in vivo, Sprague-Dawley (SD); conditions: rat (SD), intravenous administration 0.5-10 mg/kg; CLtot = dose/AUC
Description: Dose: Intravenous administration with designated doses was selected. (Doses were changed depending on compounds.) • 0.5-10 mg/kg (n=2-3) Preparation of dosing formulation: The dosing solution was prepared by dissolving in an adequate solvent. Administration method: The dosing solution was injected into the tail vein by a syringe with a needle Blood sampling: The blood was collected at the scheduled time and obtained the plasma. Plasma concentrations of the compound were measured by LC/MS/MS. Statistical analysis: Area under the plasma concentration-time curve (AUC) of the compound was calculated by pharmacokinetic analysis software, WinNonlin™ and CLtot was calculated by dividing the dose by AUC.

[2] = target: HIV-1 PR (Human immunodeficiency virus type 1 group M subtype B, UniProt P04585); experiment: HIV-protease inhibitory activity assay (FRET peptide substrate); type: biochemical; conditions: Test Example 1
Summary of the method: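 Fluorescence recovery at ex 485/em 535 nm reports cleavage of a quenched FRET peptide (2 μmol/L final) by 0.83 ng enzyme over 60 minutes at room temperature. Buffer was NaAc pH 4.8 with NaCl, EDTA, DTT and Tween 20. IC50 values came from four-parameter logistic regression of % inhibition.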

Structure (SMILES)	rat_CLt [1] [L/h/kg]	IC50 [2] [nM]
COc1ccc(S(=O)(=O)N(CC(C)C)CC(O)C(Cc2ccc(OCc3ccccc3-c3nc4n(c3C(=O)O)CCCC4)cc2)NC(=O)OC2COC3(C)OCCC23)cc1 (centres unmarked) [Compound I-125]	0.233	1.58
COc1ccc(S(=O)(=O)N(CC(C)C)CC(O)C(Cc2ccc(OCc3ccccc3NC(=O)c3sc4c(c3C(=O)O)CC(C)(C)CC4)cc2)NC(=O)OC2COC3(C)OCCC23)cc1 (centres unmarked) [Compound I-214]	0.0178	1.89
COc1ccc(S(=O)(=O)N(CC(C)C)CC(O)C(Cc2ccc(NCc3ccc(F)c(-c4sc5c(c4C(=O)O)CC(C)(C)CC5)c3)cc2)NC(=O)OC2COC3(C)OCCC23)cc1 (centres unmarked) [Compound I-287]	0.164	2.02
COc1ccc(S(=O)(=O)N(CC(C)C)CC(O)C(Cc2ccc(NCc3ncccc3-c3sc4c(c3C(=O)O)CC(C)(C)CC4)cc2)NC(=O)OC2COC3(C)OCCC23)cc1 (centres unmarked) [Compound I-305]	0.093	1.99
COc1ccc(S(=O)(=O)N(CC(C)C)CC(O)C(Cc2ccc(N(CCCc3sc4c(c3C(=O)O)CC(C)(C)CC4)Cc3ccccc3)cc2)NC(=O)OC2COC3(C)OCCC23)cc1 (centres unmarked) [Compound I-371]	0.281	10.5
COc1ccc(S(=O)(=O)N(CC(C)C)CC(O)C(Cc2ccc(NCC3COCCC3c3sc4c(c3C(=O)O)CC(C)(C)CC4)cc2)NC(=O)OC2COC3(C)OCCC23)cc1 (centres unmarked) [Compound I-399]	0.0292	1.94
COc1ccc(S(=O)(=O)N(CC(C)C)CC(O)C(Cc2ccc(N(C)Cc3ccccc3C(=O)Nc3sc4c(c3C(=O)O)CC(C)(C)CC4)cc2)NC(=O)OC2COC3(C)OCCC23)cc1 (centres unmarked) [Compound I-407]	0.0186	3.77
COc1ccc(S(=O)(=O)N(CC(C)C)CC(O)C(Cc2ccc(NCC3CCCC3c3sc4c(c3C(=O)O)CC(C)(C)CC4)cc2)NC(=O)OC2COC3(C)OCCC23)cc1 (centres unmarked) [Compound I-409]	0.0524	2.45
COc1ccc(S(=O)(=O)N(CC(C)C)CC(O)C(Cc2ccc(NCC3CCCC3c3sc4c(c3C(=O)O)CC(C)(C)CC4)cc2)NC(=O)OC2COC3(C)OCCC23)cc1 (centres unmarked) [Compound I-410]	0.0642	1.99
COc1ccc(S(=O)(=O)N(CC(C)C)CC(O)C(Cc2ccc(NCC3CCCC3c3sc4c(c3C(=O)O)CC(C)(C)CC4)cc2)NC(=O)OC2COC3OCCC23)cc1 (centres unmarked) [Compound I-878]		2.94
CC(C)CN(CC(O)C(Cc1ccc(N(C)Cc2ccccc2C(=O)Nc2sc3c(c2C(=O)O)CC(C)(C)CC3)cc1)NC(=O)OC1COC2OCCC12)S(=O)(=O)c1ccc2c(c1)OCO2 (centres unmarked) [Compound I-879]		3.78
COc1ccc(S(=O)(=O)N(CC(C)C)CC(O)C(Cc2ccc(NCC3=C(c4sc5c(c4C(=O)O)CC(C)(C)CC5)CCC(F)(F)C3)cc2)NC(=O)OC2COC3OCCC23)cc1 (centres unmarked) [Compound I-880]		4.7
COc1ccc(S(=O)(=O)N(CC(C)C)CC(O)C(Cc2ccc(N(C)CC3=C(c4sc5c(c4C(=O)O)CC(C)(C)CC5)CCC(F)(F)C3)cc2)NC(=O)OC2COC3OCCC23)cc1 (centres unmarked) [Compound I-881]		5.89
COc1ccc(S(=O)(=O)N(CC(C)C)CC(O)C(Cc2ccc(NCC3CC(C)(C)CC3c3sc4c(c3C(=O)O)CC(C)(C)CC4)cc2)NC(=O)OC2COC3OCCC23)cc1 (centres unmarked) [Compound I-883]		2.15
COc1ccc(S(=O)(=O)N(CC(C)C)CC(O)C(Cc2ccc(NCc3ccccc3NC(=O)Nc3sc4c(c3C(=O)O)CC(C)(C)CC4)cc2)NC(=O)OC2COC3OCCC23)cc1 (centres unmarked) [Compound I-884]		2.03
COc1ccc(S(=O)(=O)N(CC(C)C)CC(O)C(Cc2ccc(NCc3nc4ccccc4cc3C(=O)Nc3sc4c(c3C(=O)O)CC(C)(C)CC4)cc2)NC(=O)OC2COC3OCCC23)cc1 (centres unmarked) [Compound I-885]		3.48

Structure (SMILES)	rat_CLt [1] [L/h/kg]	IC50 [2] [nM]
COc1ccc(S(=O)(=O)N(CC(C)C)CC(O)C(Cc2ccc(NCC3CC(C)(C)CCC3c3sc4c(c3C(=O)O)CC(C)(C)CC4)cc2)NC(=O)OC2COC3OCCC23)cc1 (centres unmarked) [Compound I-886]		3.68
COc1ccc(S(=O)(=O)N(CC(C)C)CC(O)C(Cc2ccc(NCC3CC(C)(C)CCC3c3sc4c(c3C(=O)O)CC(C)(C)CC4)cc2)NC(=O)OC2COC3OCCC23)cc1 (centres unmarked) [Compound I-887]		2.85
COc1ccc(S(=O)(=O)N(CC(C)C)CC(O)C(Cc2ccc(N3Cc4nc5ccccc5cc4C3=O)cc2)NC(=O)OC2COC3OCCC23)cc1 (centres unmarked) [Compound I-888]		2.1
CC(C)CN(CC(O)C(Cc1ccc(CCc2sc3c(c2C(=O)O)CC(C)(C)CC3)cc1)NC(=O)OC1COC2(C)OCCC12O)S(=O)(=O)c1ccc2ncsc2c1 (centres unmarked) [Compound I-889]		1.49
COc1ccc(S(=O)(=O)N(CC(C)C)CC(O)C(Cc2ccc(NCc3ccccc3C(=O)Nc3sc4c(c3C(=O)O)CC(C)(C)CC4)cc2)NC(=O)OC2COC3(C)OCCC23O)cc1 (centres unmarked) [Compound I-891]		2.88
COc1ccc(S(=O)(=O)N(CC2CCCC2)CC(O)C(Cc2ccc(NCc3ccccc3C(=O)Nc3sc4c(c3C(=O)O)CC(C)(C)CC4)cc2)NC(=O)OC2COC3(C)OCCC23O)cc1 (centres unmarked) [Compound I-892]		4.06
COc1ccc(S(=O)(=O)N(CC2CCC2)CC(O)C(Cc2ccc(NCc3ccccc3C(=O)Nc3sc4c(c3C(=O)O)CC(C)(C)CC4)cc2)NC(=O)OC2COC3(C)OCCC23O)cc1 (centres unmarked) [Compound I-893]		5.83
COc1ccc(S(=O)(=O)N(CC(C)C)CC(O)C(Cc2ccc(OCC3CCN(c4ccc(-c5sc6c(c5C(=O)O)CC(C)(C)CC6)cc4)C3)cc2)NC(=O)OC2COC3(C)OCCC23)cc1 (centres unmarked) [Compound I-894]		20.4
COc1ccc(S(=O)(=O)N(CC(C)C)CC(O)C(Cc2ccc(OCC3CCN(c4cccc(-c5sc6c(c5C(=O)O)CC(C)(C)CC6)c4)C3)cc2)NC(=O)OC2COC3(C)OCCC23)cc1 (centres unmarked) [Compound I-896]		16.7
COc1ccc(S(=O)(=O)N(CC(C)C)CC(O)C(Cc2ccc(NCc3ccccc3-c3ccc4[nH]c(C(=O)O)cc4c3)cc2)NC(=O)OC2COC3(C)OCCC23)cc1 (centres unmarked) [Compound I-897]		2.46
COc1ccc(S(=O)(=O)N(CC(C)C)CC(O)C(Cc2ccc(NCc3ccccc3-c3csc4c(C(=O)O)cccc34)cc2)NC(=O)OC2COC3(C)OCCC23)cc1 (centres unmarked) [Compound I-898]		1.78
COc1ccc(S(=O)(=O)N(CC(C)C)CC(O)C(Cc2ccc(NCc3ccccc3-c3ccc4c(c3)cc(C(=O)O)n4C)cc2)NC(=O)OC2COC3(C)OCCC23)cc1 (centres unmarked) [Compound I-899]		1.46
COC(=O)NC(C(=O)NC(Cc1ccccc1)C(O)CN(Cc1ccc(-c2ccc(-c3sc4c(c3C(=O)O)CC(C)(C)CC4)cc2)cc1)NC(=O)C(NC(=O)OC)C(C)(C)C)C(C)(C)C (centres unmarked) [Compound I-900]		2.9
COC(=O)NC(C(=O)NC(Cc1ccccc1)C(O)CN(Cc1ccc(-c2sc3c(c2C(=O)O)CC(C)(C)CC3)cc1)NC(=O)C(NC(=O)OC)C(C)(C)C)C(C)(C)C (centres unmarked) [Compound I-901]		2.34
COc1ccc(S(=O)(=O)N(CC(C)C)C[C@@H](O)[C@H](Cc2ccc(OCc3ccccc3-c3sc4c(c3C(=O)O)CC(C)(C)CC4)cc2)NC(=O)O[C@H]2CCC[C@H]3O[C@@H]4OCC[C@@H]4[C@@H]23)cc1 [Compound I-909]		3.25
CCCCCCCCCCCCCC(=O)Nc1ccc(CN(C)c2ccc(C[C@H](NC(=O)OC3CO[C@@]4(C)OCC[C@@H]34)[C@H](O)CN(CC(C)C)S(=O)(=O)c3ccc(OC)cc3)cc2)c(-c2sc3c(c2C(=O)O)CC(C)(C)CC3)c1 (some centres unmarked) [Compound I-910]		7.84
